Measurements from article doi:10.1101/2025.06.02.657523v1 (biorxiv, 2025).

Target: RSK4 (Homo sapiens, UniProt Q9UK32)
Experiment: Kinase-Glo Plus luminescence kinase assay
Type: biochemical
Settings: […] ATP, […] MgCl2, pH […] °C, […] min, […] DMSO

RSK4, sequence (Q9UK32 whole entry): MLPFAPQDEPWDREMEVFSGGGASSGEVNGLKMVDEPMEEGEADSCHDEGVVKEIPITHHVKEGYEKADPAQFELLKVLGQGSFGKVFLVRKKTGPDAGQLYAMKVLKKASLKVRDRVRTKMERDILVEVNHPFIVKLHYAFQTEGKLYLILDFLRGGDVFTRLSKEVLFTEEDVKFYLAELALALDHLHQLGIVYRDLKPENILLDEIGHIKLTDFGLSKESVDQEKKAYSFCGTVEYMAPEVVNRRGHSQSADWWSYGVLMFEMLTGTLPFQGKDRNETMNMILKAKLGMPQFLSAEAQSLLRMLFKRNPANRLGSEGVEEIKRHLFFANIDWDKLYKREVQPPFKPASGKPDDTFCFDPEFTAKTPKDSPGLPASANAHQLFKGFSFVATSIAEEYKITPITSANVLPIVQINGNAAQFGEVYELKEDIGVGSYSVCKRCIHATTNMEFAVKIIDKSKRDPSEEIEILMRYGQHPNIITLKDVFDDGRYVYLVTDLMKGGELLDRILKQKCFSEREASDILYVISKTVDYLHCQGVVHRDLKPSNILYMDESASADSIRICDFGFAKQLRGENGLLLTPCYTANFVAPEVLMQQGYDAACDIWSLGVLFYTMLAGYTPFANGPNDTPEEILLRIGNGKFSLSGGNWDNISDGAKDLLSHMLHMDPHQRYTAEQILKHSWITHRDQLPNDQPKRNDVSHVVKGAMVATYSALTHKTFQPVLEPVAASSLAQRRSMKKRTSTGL

Row | SMILES | IC50
1 | Cc1cc(=O)n(C2CCC(F)(F)C2)c2nc(Nc3ccc4c(c3)CC(=O)N4)ncc12 (centres unmarked) [R634] | 86.3 ± 40.7 nM
2 | Cc1cc(=O)n(C2CCCCC2)c2nc(Nc3ccc4[nH]ccc4c3)ncc12 [R635, 2-((1H-indol-5-yl)amino)-8-cyclohexyl-5-methylpyrido[2,3-d]pyrimidin-7(8H)-one] | 45.9 ± 3.11 nM
